Patent US20090203775A1, “Novel compound and a novel microorganism for producing the novel compound” (Haiyi Biotech Pte, Ltd., priority 2005, published 2009)
≈ marks a conversion by molar mass, not a printed value. Where two headings read alike, the source gives them in different places.

How the values were obtained:
B. subtilis = assay: Germicidal effect, MTT assay, B. subtilis; format: cell-based
Experimental: (§1) Aims: To observe the germicidal effect of the compound of formula (I) on T. rubrum, T. mentagrophytes, C. albicans and B. subtilis. Method: […] Concentration of the samples were: (1) 2 mg/ml; (2) 1 mg/ml; (3) 0.5 mg/ml; (4) 0.25 mg/ml; Volume of the sample: 50 ul/well.

[1] = tested on: A2780 (human ovary cancer cells); assay: MTT assay, percentage of killing, A2780; format: cell-based; conditions: 24~48 hours
Experimental: (§2) 1. Method: 3-[4,5-dimethyl(thiazol-2-yl)-3,5-diphery] tetradium bromide (MTT) assay. 2. Culture medium: RPMI-1640 medium containing 2% calf serum 3. Apparatus: (1) CO2 incubator, Sherton USA; (2) 318MC Enzyme analysis machine, SANCO Equipments Company Ltd. 4. Conditions of the culture: Temp. 37° C.; Concentration of CO2: 4.7%, culture duration: 24˜48 hours.

Veo cells = assay: Half toxic concentration in the antiviral test cells; format: cell-based
Experimental: (§3) Methods: The Veo cells were cultured in 96-well plates. The cells were infected with Coxsakie B3 virus for 2 hours after 24 hours of incubation. The solution containing the virus was then discarded. The samples were then added into the wells at the concentrations with the appropriate controls. The cell pathological extent (CPE) was observed 36 hours later. The half inhibitory concentration (IC50) was calculated by using the method of Reed-Muench.
(§4) (1) “-” means that the sample has no anti Coxsakie B3 virus effect at the maximal dose with no toxicity. (2) TC50 indicates the half toxic concentration; IC50 indicates the half inhibitory concentration for the virus; SI indicates the selective index, calculated as the follow: SI=TC50/IC50

Coxsakie B3 virus = assay: in vitro; format: cell-based; conditions: for IC50: read-out: IC50 (half inhibitory concentration for the virus)
Experimental: Treatment of the sample: The sample was first dissolved in DMSO to appropriate concentration. The sample solutions were then diluted the samples in culture medium solution to obtain eight concentrations.
as §3, §4

[2] = tested on: L1210 (mouse leukemia cells); assay: MTT assay, percentage of killing, L1210; format: cell-based; conditions: 24~48 hours
Experimental: as §2

[3] = tested on: L1210 (mouse lymph leukemia cells); assay: Survival of mice transplanted with L1210; format: in vivo, BDF-1 mice; conditions: d 1, d 6, s.c.; for duration of survival (Ave): control 15
Experimental: Aims: To observe the effect of prolonging the survival of the compound of formula (I) on mice transplanted with L1210, a kind of mouse lymph leukemia cells.
Methods: 18 BDF-1 mice, male. L1210 (mouse lymph leukemia cells) were administered by i.p. injection, at the dose of 1×10^5 per mouse. Mice were divided into three groups randomly, with six animals per group. The test group was administered with the drug on day 1 and day 6 by subcutaneous (s.c.) injection. An equal volume of saline was administered in control animals.
Dosage: Test group 1: 50 mg/kg the lyophilized powder injection of the compound of formula (I) was administered by s.c. injection, • Test group 2: 25 mg/kg the lyophilized powder injection of the compound of formula (I) was administered by s.c. injection, • Test group 3: 12.5 mg/kg the lyophilized powder injection of the compound of formula (I) was administered by s.c. injection.

[4] = tested on: human stomach cancer cells MGC-803; assay: Nude mouse transplanted with human stomach cancer MGC-803, tumor growth inhibition; format: in vivo, BALB/cA nude mice
Experimental: Aim: To observe the growth inhibitory effect and the intensity of the effect of the compound of formula (I) in nude mouse transplanted with human stomach cancer cells MGC803.
Material: The lyophilized injection powder of the compound of formula (I), 15 mg/vial, diluted to the needed concentration by 0.9% saline before use.
Dosages: the dosages of the compound of formula (I) are 15, 10 and 5 mg/kg.
Animals: BALB/cA nude mice, female, 40˜45-days old, body weight is 18±2 g. The number of the animals in per group: negative control: 12; group with drug: 6.
Transplanted tumor: Human stomach cancer MGC-803 cells were transplanted into the nude mice as follows. Approximately half a million […] of the MGC-803 cells was injected subcutaneously (s.c.) into the mice. The tumors were used after breeding the mice for three generations.
Methods: Tumors in peak growth were cut into the sizes of around 1.5 mm^3. Under aseptic conditions the tumours were injected subcutaneously to the right axilla of the mouse. The size of the transplanted tumor is then measure and the animals randomly divided into several groups when the size of the tumor reaches 100-200 mm^3. The drug is administered by intravenous (i.v.) injection on the 1st and 6th days. Saline is administered as control. The size of the tumor is examined every two weeks together with the weight of the mouse. The tumor volume(TV) is calculated as:
Where, a and b represent length and width, respectively. The relative tumor volume (RTV) is calculated as: RTV=Vt/V0, where V0 is the volume of the tumor before administering the compound, Vt is the volume of the tumor after administering the compound. The index for evaluating the activity of anticancer is the relative growth rate of tumor (T/C), which is calculated as: […]
wherein, TRTV is the administering group; CRTV is the control group.
The standard for evaluating the treatment effect: T/C (%)>60% means no effect, T/C<=60% and p<0.05 means having a significant effect.

T. rubrum = assay: Germicidal effect, MTT assay, T. rubrum; format: cell-based
Experimental: as §1

[5] = tested on: T. rubrum, T. mentagrophytes, C. albicans and B. subtilis; assay: Germicidal effect, MTT assay, summary statement for all strains; format: cell-based; conditions: ≧50 μg/well; summary for the strains of Table 8
Experimental: as §1

T. mentagrophytes = assay: Germicidal effect, MTT assay, T. mentagrophytes; format: cell-based
Experimental: as §1

[6] = tested on: L1210, a kind of lymph leukemia cell; assay: Ex vivo treatment of L1210 cells, then i.p. injection into mice; format: in vivo, BDF-1 mice
Experimental: Control: 6 BDF-1 mice, male, administer to each mouse 1×10^8 L1210, a kind of lymph leukemia cell, by intraperitoneal (i.p.) injection, (without the compound of formula (I) treatment); results are shown in FIG. 11.
Ex vivo test group: 6 BDF-1 mice, male, administer to each mouse 1×10^8 L1210 cells by i.p. injection, wherein the L1210 were treated with the compound of formula (I). The method of treating cells ex vivo: The concentration of the lyophilized powder injection of the compound of formula (I) is 7.5 mg/ml. It was diluted to 150 ug/ml with saline solution. A volume of 67 ul of the diluted injection solution is mixed with 1.5 ml L1210 cells and 0.433 ml saline to obtain in each […] of L1210 cells to contain 5 ug the compound. The mixture is placed at the room temperature for two hours.

C. albicans = assay: Germicidal effect, MTT assay, C. albicans; format: cell-based
Experimental: as §1

[7] = tested on: MGC (human stomach cancer cells); assay: MTT assay, percentage of killing, MGC; format: cell-based; conditions: 24~48 hours
Experimental: as §2

[8] = tested on: B16 (mouse melanocytoma cells); assay: MTT assay, percentage of killing, B16; format: cell-based; conditions: 24~48 hours
Experimental: as §2

[9] = tested on: Eca-109 (esophageal cancer cells); assay: MTT assay, percentage of killing, Eca-109; format: cell-based; conditions: for percentage of killing: MTT, 24~48 hours
Experimental: as §2

O=C1CC[C@H](c2ccc(O)c3c2C(=O)C2OC2[C@H]3O)c2cccc(O)c21 (stereo partly shown) [compound of formula (I)]
Gemicidal effect (killing rate) (B. subtilis; 12.5 μg/ml): 65%
Gemicidal effect (killing rate) (B. subtilis; 25 μg/ml): 85%
Gemicidal effect (killing rate) (B. subtilis; 50 μg/ml): 99%
Gemicidal effect (killing rate) (B. subtilis; 100 μg/ml): 100%
percentage of killing ([1]; A2780, 312.5 ng/ml): 0%
percentage of killing ([1]; A2780, 625 ng/ml): 35.31%
percentage of killing ([1]; A2780, 1.25 ug/ml): 46.5%
percentage of killing ([1]; A2780, 2.5 ug/ml): 73.08%
percentage of killing ([1]; A2780, 5 ug/ml): 90.91%
TC50 (half toxic concentration) (Veo cells): 24.7 mg/L
selectivity ratio at 36 h (Coxsakie B3 virus; African green monkey, Veo cells infected with Coxsakie B3 virus, Coxsakie B3 virus in Veo cells, read-out: SI (selective index, TC50/IC50)): 2.88
IC50 (Coxsakie B3 virus; Coxsakie B3 virus in Veo cells, CPE after 36 hours, Reed-Muench): 8.56 mg/L
percentage of killing ([2]; L1210, 312.5 ng/ml): 0%
percentage of killing ([2]; L1210, 625 ng/ml): 0%
percentage of killing ([2]; L1210, 1.25 ug/ml): 17.02%
percentage of killing ([2]; L1210, 2.5 ug/ml): 94.18%
percentage of killing ([2]; L1210, 5 ug/ml): 97.00%
prolonging days ([3]; 12.5 mg/kg): 5 days
rate of prolonging (%) ([3]; 12.5 mg/kg): 33%
duration of survival (Ave) ([3]; 12.5 mg/kg): 20
prolonging days ([3]; 25 mg/kg): 7 days
rate of prolonging (%) ([3]; 25 mg/kg): 47%
duration of survival (Ave) ([3]; 25 mg/kg): 22
prolonging days ([3]; 50 mg/kg): 13 days
rate of prolonging (%) ([3]; 50 mg/kg): 87%
duration of survival (Ave) ([3]; 50 mg/kg): 28
growth inhibitory effect (in words) ([4]; 15 mg/kg on day 1 and day 6, i.v., T/C<=60% and p<0.05 means significant effect): significant growth inhibitory effect
weight(g) final ([4]; 15 mg/kg, d 1, d 6, i.v., lyophilized powder, body weight of mice, final): 17.2 g
weight(g) Initial ([4]; 15 mg/kg, d 1, d 6, i.v., lyophilized powder, body weight of mice, initial): 18.3 g
T/C (%) ([4]; 15 mg/kg, d 1, d 6, i.v., relative growth rate of tumor, TRTV/CRTV x 100): 0.18%
RTV ([4]; 15 mg/kg, d 1, d 6, i.v., relative tumor volume Vt/V0): 0.02 ± 4.3
complete disappearance of tumor ([4]; 15 mg/kg, d 1, d 6, i.v., three weeks after the treatment, 6 mice): the tumor in one mouse disappeared completely
TV(mm^3) d 0 ([4]; 15 mg/kg, d 1, d 6, i.v., tumor volume before treatment): 102 ± 22 mm^3
TV(mm^3) d 21 ([4]; 15 mg/kg, d 1, d 6, i.v., tumor volume d 21): 2.2 ± 0.04 mm^3
Gemicidal effect (killing rate) (T. rubrum; 12.5 μg/ml): 58%
Gemicidal effect (killing rate) (T. rubrum; 25 μg/ml): 80%
Gemicidal effect (killing rate) (T. rubrum; 50 μg/ml): 99%
Gemicidal effect (killing rate) (T. rubrum; 100 μg/ml): 100%
antifungal effects [5]: 99.9%
Gemicidal effect (killing rate) (T. mentagrophytes; 12.5 μg/ml): 60%
Gemicidal effect (killing rate) (T. mentagrophytes; 25 μg/ml): 82%
Gemicidal effect (killing rate) (T. mentagrophytes; 50 μg/ml): 99.5%
Gemicidal effect (killing rate) (T. mentagrophytes; 100 μg/ml): 100%
duration of survival ([6]; 6 BDF-1 mice given 1×10^8 L1210 cells i.p., cells treated ex vivo with 5 ug compound, two hours, room temperature, controls died at 12-15 days): after 60 days
others (symptoms) ([6]; 6 BDF-1 mice given compound-treated L1210 cells i.p.): no symptom
killing of L1210 ex vivo (in words) ([6]; L1210 treated ex vivo with 5 ug compound, two hours, room temperature): killed completely
Gemicidal effect (killing rate) (C. albicans; 12.5 μg/ml): 50%
Gemicidal effect (killing rate) (C. albicans; 25 μg/ml): 75%
Gemicidal effect (killing rate) (C. albicans; 50 μg/ml): 99%
Gemicidal effect (killing rate) (C. albicans; 100 μg/ml): 99.5%
percentage of killing ([7]; 312.5 ng/ml): 0%
percentage of killing ([7]; 625 ng/ml): 40.98%
percentage of killing ([7]; 1.25 ug/ml): 42.32%
percentage of killing ([7]; 2.5 ug/ml): 64.37%
percentage of killing ([7]; 5 ug/ml): 85.52%
percentage of killing ([8]; B16, 312.5 ng/ml): 1.06%
percentage of killing ([8]; B16, 625 ng/ml): 6.37%
percentage of killing ([8]; B16, 1.25 ug/ml): 0%
percentage of killing ([8]; B16, 2.5 ug/ml): 51.75%
percentage of killing ([8]; B16, 5 ug/ml): 72.53%
percentage of killing ([9]; Eca-109, 312.5 ng/ml): 0%
percentage of killing ([9]; Eca-109, 625 ng/ml): 0%
percentage of killing ([9]; Eca-109, 1.25 ug/ml): 0%
percentage of killing ([9]; Eca-109, 2.5 ug/ml): 0%
percentage of killing ([9]; Eca-109, 5 ug/ml): 0.18%
effect on Eca-109 (in words) ([9]; Eca-109, MTT): no effect

NC(=O)c1ncn([C@@H]2O[C@H](CO)[C@@H](O)[C@H]2O)n1 [RBV, Ribavirin, reference compound]
IC50 (Coxsakie B3 virus; 36 h): 448 mg/L (≈ 1830 µM)
